In PMC10380348 (2023) one finds binding data, which are given here for one compound.

The assay relates to MnG4C1 (DNA, G4) AGGGGGGGAGTTAGGGCGCACGTTAGGGGTGCTATTAGGG
As to the kind of experiment: ThT fluorescence light-up, 492 nm. To be noted: 50 mM Tris-HCl pH 7.5, room temperature, 3 µM ThT, 1 mM aptamer.

As for `Cc1ccc2c(c1)sc(-c1ccc(N(C)C)cc1)[n+]2C`, the binding entry runs as follows: (K+ 0-30 mM) “yes”; (Mn2+ 0-100 µM) “yes”.
